Experimental data as given in patent publication US10544143B2, “4-azaindole compounds” (BRISTOL-MYERS SQUIBB COMPANY, priority 2017, dated 2020).
Read-outs that look alike come from different tables or passages of the source. Values belong to the compound of their own block, whether it stands above or below them.

What was measured:
human TLR9 = human TLR9 (Homo sapiens (Human), UniProt Q9NR96); experiment: TLR9 inhibition reporter assay (HEK-Blue SEAP); conditions: read-out: TLR9 IC50;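 further: SEAP driven by an IFN-β minimal promoter with NF-κB and AP-1 sites, read after 22 h, compounds dosed 0.05 nM–50 µM, inhibition scaled between agonist plus DMSO and reference-inhibitor wells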
Sequence of human TLR9 (Q9NR96 26-1032): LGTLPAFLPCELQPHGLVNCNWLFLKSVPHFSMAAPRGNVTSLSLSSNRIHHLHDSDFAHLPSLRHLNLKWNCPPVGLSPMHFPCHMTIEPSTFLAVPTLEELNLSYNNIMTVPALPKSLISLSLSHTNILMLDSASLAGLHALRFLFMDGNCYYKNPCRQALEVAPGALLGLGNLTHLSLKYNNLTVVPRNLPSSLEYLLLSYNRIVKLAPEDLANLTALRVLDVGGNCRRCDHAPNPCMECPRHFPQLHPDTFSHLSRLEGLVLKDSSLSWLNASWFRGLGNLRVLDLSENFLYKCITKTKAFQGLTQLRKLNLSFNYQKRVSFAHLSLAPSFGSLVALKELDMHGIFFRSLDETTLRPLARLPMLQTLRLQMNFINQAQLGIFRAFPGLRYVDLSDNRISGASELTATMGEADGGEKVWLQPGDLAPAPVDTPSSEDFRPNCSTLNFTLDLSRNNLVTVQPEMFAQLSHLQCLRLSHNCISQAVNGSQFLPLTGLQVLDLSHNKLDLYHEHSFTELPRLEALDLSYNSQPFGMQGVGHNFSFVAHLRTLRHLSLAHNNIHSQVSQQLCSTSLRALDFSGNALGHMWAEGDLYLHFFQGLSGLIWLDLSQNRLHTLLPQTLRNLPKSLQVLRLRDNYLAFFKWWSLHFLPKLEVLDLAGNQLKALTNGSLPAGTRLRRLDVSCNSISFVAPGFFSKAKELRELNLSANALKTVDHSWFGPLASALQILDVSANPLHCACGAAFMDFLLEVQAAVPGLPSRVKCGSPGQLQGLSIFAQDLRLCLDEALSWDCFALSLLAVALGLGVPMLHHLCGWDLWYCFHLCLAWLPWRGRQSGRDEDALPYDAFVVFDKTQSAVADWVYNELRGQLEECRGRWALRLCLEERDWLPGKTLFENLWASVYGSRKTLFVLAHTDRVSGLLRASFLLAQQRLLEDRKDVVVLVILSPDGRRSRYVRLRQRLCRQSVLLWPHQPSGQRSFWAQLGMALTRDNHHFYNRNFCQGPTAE

human TLR7 = human TLR7 (Homo sapiens (Human), UniProt Q9NYK1); experiment: TLR7 inhibition reporter assay (HEK-Blue SEAP); type: cell-based
Sequence of human TLR7 (Q9NYK1 27-1049): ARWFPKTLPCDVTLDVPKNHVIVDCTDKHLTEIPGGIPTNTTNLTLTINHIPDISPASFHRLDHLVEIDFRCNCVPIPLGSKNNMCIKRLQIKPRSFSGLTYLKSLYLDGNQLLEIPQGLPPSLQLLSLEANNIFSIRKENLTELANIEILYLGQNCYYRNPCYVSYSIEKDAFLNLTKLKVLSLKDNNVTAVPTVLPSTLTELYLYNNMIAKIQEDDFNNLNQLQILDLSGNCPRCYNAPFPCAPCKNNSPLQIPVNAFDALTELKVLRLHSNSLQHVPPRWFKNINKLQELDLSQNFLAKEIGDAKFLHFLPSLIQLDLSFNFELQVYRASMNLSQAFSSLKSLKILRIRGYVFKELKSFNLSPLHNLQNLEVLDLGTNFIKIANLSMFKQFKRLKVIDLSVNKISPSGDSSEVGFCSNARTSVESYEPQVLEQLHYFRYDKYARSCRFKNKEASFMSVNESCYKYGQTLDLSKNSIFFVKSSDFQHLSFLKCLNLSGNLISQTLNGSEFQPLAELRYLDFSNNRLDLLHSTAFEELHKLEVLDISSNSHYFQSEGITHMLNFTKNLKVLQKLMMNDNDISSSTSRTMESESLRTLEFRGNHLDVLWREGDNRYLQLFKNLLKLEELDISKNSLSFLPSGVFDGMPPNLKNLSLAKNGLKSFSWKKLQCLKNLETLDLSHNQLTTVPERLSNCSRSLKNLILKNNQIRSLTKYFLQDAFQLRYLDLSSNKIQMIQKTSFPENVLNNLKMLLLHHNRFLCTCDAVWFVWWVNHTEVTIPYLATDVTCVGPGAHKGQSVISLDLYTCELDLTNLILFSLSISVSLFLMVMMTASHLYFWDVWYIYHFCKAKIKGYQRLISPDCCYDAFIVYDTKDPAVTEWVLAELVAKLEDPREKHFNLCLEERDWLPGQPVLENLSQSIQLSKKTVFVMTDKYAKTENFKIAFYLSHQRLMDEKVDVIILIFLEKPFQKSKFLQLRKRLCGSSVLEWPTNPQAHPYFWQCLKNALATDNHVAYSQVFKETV

human TLR8 = human TLR8 (Homo sapiens (Human), UniProt Q9NR97); experiment: TLR8 inhibition reporter assay (HEK-Blue SEAP); conditions: read-out: TLR8 IC50;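 further: SEAP driven by IFN-β minimal promoter carrying NF-κB and AP-1 sites, compounds dosed 0.05 nM to 50 µM for 22 h, inhibition scaled between agonist-plus-DMSO and reference-inhibitor wells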
Sequence of human TLR8 (Q9NR97 27-1041): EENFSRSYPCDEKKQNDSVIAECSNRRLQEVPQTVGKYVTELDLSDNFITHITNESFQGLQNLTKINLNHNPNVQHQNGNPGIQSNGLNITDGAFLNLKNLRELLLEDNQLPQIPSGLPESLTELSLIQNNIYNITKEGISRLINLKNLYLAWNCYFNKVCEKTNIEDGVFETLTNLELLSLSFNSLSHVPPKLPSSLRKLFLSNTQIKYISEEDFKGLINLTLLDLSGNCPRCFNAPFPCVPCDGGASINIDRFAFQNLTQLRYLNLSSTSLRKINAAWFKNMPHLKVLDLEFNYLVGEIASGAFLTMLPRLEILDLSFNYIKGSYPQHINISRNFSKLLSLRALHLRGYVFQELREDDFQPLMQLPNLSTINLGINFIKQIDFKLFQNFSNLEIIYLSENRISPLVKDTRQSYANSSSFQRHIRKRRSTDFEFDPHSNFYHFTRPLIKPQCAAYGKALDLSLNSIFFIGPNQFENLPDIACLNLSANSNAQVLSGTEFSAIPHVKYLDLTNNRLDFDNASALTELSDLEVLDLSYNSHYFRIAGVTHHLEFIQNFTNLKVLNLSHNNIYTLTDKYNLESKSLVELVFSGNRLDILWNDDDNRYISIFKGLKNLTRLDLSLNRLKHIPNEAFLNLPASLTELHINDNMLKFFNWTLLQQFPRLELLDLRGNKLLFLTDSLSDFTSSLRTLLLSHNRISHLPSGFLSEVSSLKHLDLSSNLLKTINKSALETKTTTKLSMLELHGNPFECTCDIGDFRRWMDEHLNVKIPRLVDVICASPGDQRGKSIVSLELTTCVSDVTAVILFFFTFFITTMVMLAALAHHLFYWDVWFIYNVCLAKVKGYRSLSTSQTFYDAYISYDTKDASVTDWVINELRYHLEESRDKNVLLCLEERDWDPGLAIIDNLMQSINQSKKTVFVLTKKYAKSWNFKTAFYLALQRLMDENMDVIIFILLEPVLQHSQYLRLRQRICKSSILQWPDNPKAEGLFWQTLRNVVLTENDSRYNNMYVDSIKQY

[1] = HEK-Blue human TLR9 cells, ODN2006 5 nM
[2] = HEK-Blue human TLR7 cells, gardiquimod 7.5 μM
[3] = HEK-Blue human TLR8 cells, R848 15.9 μM
[4] = HEK-Blue cells overexpressing human TLR9, SEAP reporter, ODN2006 5 nM
[5] = HEK-Blue cells overexpressing human TLR7, SEAP reporter, gardiquimod 7.5 μM
[6] = HEK-Blue cells overexpressing human TLR8, SEAP reporter, R848 15.9 μM
[7] = HEK-Blue cells overexpressing human TLR9, ODN2006 5 nM stimulation, SEAP reporter
[8] = HEK-Blue cells overexpressing human TLR7, gardiquimod 7.5 μM stimulation, SEAP reporter
[9] = HEK-Blue cells overexpressing human TLR8, R848 15.9 μM stimulation, SEAP reporter

SMILES: COc1cc(-c2[nH]c3ccc(C4CCC(N5CCC(F)C5)CC4)nc3c2C(C)C)cn2ncnc12 (stereo not drawn) [Example 1072]
IC50 (human TLR9; [1]): 5840 nM
IC50 (human TLR7; [2]): 2.9 nM
IC50 (human TLR8; [3]): 35 nM

SMILES: Cc1c(-c2[nH]c3ccc(C4CCC(N(C)CCS(C)(=O)=O)CC4)nc3c2C(C)C)cn2ncnc2c1C (stereo not drawn) [Example 427]
IC50 (human TLR9; [4]): 4900 nM
IC50 (human TLR7; [5]): 2.4 nM
IC50 (human TLR8; [6]): 7.6 nM

SMILES: CNC(=O)CN(C)C1CCC(c2ccc3[nH]c(-c4cc(OC)c5ncnn5c4)c(C(C)C)c3n2)CC1 (stereo not drawn) [Example 210]
IC50 (human TLR9; [7]): > 50000 nM
IC50 (human TLR7; [8]): > 3120 nM
IC50 (human TLR8; [9]): > 3120 nM

SMILES: COc1ncnc(OC)c1CN(C)C1CCN(c2ccc3[nH]c(-c4cn5ncnc5c(C)c4C)c(C(C)C)c3n2)CC1 [Example 61]
IC50 (human TLR9; [7]): 2410 nM
IC50 (human TLR7; [8]): 4.4 nM
IC50 (human TLR8; [9]): 1.8 nM

SMILES: COc1cc(-c2[nH]c3ccc(N4CCN(CC5CC5)CC4)nc3c2C(C)C)cn2ncnc12 [Example 120]
IC50 (human TLR9; [7]): 5490 nM
IC50 (human TLR7; [8]): 2.3 nM
IC50 (human TLR8; [9]): 0.6 nM

SMILES: Cc1c(-c2[nH]c3ccc(C4CCC(N5CCCC5)CC4)nc3c2C(C)C)cn2ncnc2c1C (stereo not drawn) [Example 360]
IC50 (human TLR9; [7]): 1410 nM
IC50 (human TLR7; [8]): 1.3 nM
IC50 (human TLR8; [9]): 3.4 nM

SMILES: CNC1CCC(c2nc3c(C(C)C)c(-c4cc(OC)c5ncnn5c4)[nH]c3cc2F)CC1 (stereo not drawn) [Example 347]
IC50 (human TLR9; [7]): 2470 nM
IC50 (human TLR7; [8]): 0.27 nM
IC50 (human TLR8; [9]): 1 nM

SMILES: COc1cc(-c2[nH]c3ccc(N4CCN(C5COC5)CC4)nc3c2C(C)C)cn2ncnc12 [Example 93]
IC50 (human TLR9; [7]): 35000 nM
IC50 (human TLR7; [8]): 5.3 nM
IC50 (human TLR8; [9]): 7.2 nM

SMILES: CNC1CCC(c2ccc3[nH]c(-c4cc(OC)c5ncnn5c4)c(C(C)C)c3n2)CC1 (stereo not drawn) [Example 189]
IC50 (human TLR9; [7]): 313 nM
IC50 (human TLR7; [8]): 1.6 nM
IC50 (human TLR8; [9]): 6.7 nM

SMILES: Cc1c(-c2[nH]c3ccc(N4CCN(C(=O)CN5CCCC5)CC4)nc3c2C(C)C)cn2ncnc2c1C [Example 145]
IC50 (human TLR9; [7]): 8200 nM
IC50 (human TLR7; [8]): 1.5 nM
IC50 (human TLR8; [9]): 0.49 nM

SMILES: COc1cc(-c2[nH]c3ccc(C4CCC(NCC5(S(C)(=O)=O)CC5)CC4)nc3c2C(C)C)cn2ncnc12 (stereo not drawn) [Example 219]
IC50 (human TLR9; [7]): 2480 nM
IC50 (human TLR7; [8]): 3.9 nM
IC50 (human TLR8; [9]): 8 nM

SMILES: CC(C)c1c(-c2cc(CO)c3ncnn3c2)[nH]c2ccc(C3CCC(NCc4c[nH]nn4)CC3)nc12 (stereo not drawn) [Example 221]
IC50 (human TLR9; [7]): 435 nM
IC50 (human TLR7; [8]): 3.7 nM
IC50 (human TLR8; [9]): 13 nM

SMILES: CC(C)c1c(-c2cn(C)c3ncccc23)[nH]c2ccc(N3CC(N)C3)nc12 [Example 35]
IC50 (human TLR9; [7]): 13800 nM
IC50 (human TLR7; [8]): 589 nM
IC50 (human TLR8; [9]): 282 nM

SMILES: CNC(=O)CN1CCC(c2ccc3[nH]c(-c4cn(C)c(=O)c(C)c4C)c(C(C)C)c3n2)CC1 [Example 544]
IC50 (human TLR9; [4]): 5660 nM
IC50 (human TLR7; [5]): 11 nM
IC50 (human TLR8; [6]): 6.4 nM

SMILES: Cc1cc(-c2[nH]c3ccc(N4CCNCC4)nc3c2C(C)C)cn2ncnc12 [Example 88]
IC50 (human TLR9; [7]): 3600 nM
IC50 (human TLR7; [8]): 68 nM
IC50 (human TLR8; [9]): 91 nM

The remaining lines, values ahead:

IC50 (human TLR9; [1]): 5470 nM
IC50 (human TLR7; [2]): 4.3 nM
IC50 (human TLR8; [3]): 8.3 nM
SMILES: Cc1c(-c2[nH]c3ccc(C4CCC(N5CC6(CCO6)C5)CC4)nc3c2C(C)C)cn2ncnc2c1C (stereo not drawn) [Example 1055]

IC50 (human TLR9; [4]): 21100 nM
IC50 (human TLR7; [5]): 3.5 nM
IC50 (human TLR8; [6]): 9.9 nM
SMILES: Cc1c(-c2[nH]c3ccc(C4CN(C(=O)CN(C)C)CCO4)nc3c2C(C)C)cn2ncnc2c1C (stereo not drawn) [Example 663]

IC50 (human TLR9; [1]): 9780 nM
IC50 (human TLR7; [2]): 1.9 nM
IC50 (human TLR8; [3]): 4.9 nM
SMILES: Cc1c(-c2[nH]c3ccc(N4CCN(C(C)C)C[C@H]4C)nc3c2C(C)C)cn2ncnc2c1C [Example 833]

IC50 (human TLR9; [4]): 2690 nM
IC50 (human TLR7; [5]): 2.7 nM
IC50 (human TLR8; [6]): 4.5 nM
SMILES: Cc1c(-c2[nH]c3ccc(C4CC(NC(=O)CN(C)C)C4)nc3c2C(C)C)cn2ncnc2c1C (stereo not drawn) [Example 644]

IC50 (human TLR9; [4]): 5070 nM
IC50 (human TLR7; [5]): 30 nM
IC50 (human TLR8; [6]): 14 nM
SMILES: Cc1c(-c2[nH]c3ccc(C4CC(N(C)CC(=O)N(C)C)C4)nc3c2C(C)C)cn2ncnc2c1C (stereo not drawn) [Example 622]

IC50 (human TLR9; [1]): 9040 nM
IC50 (human TLR7; [2]): 0.48 nM
IC50 (human TLR8; [3]): 2.2 nM
SMILES: Cc1c(-c2[nH]c3ccc(N4CCN(C(=O)CN(C)C(C)(C)C)CC4)nc3c2C(C)C)cn2ncnc2c1C [Example 878]

IC50 (human TLR9; [4]): 796 nM
IC50 (human TLR7; [5]): 0.87 nM
IC50 (human TLR8; [6]): 15 nM
SMILES: Cc1cc(-c2[nH]c3ccc(C4CCN(C(=O)CN(C)C)CC4)nc3c2C(C)C)cn2ncnc12 [Example 550]

IC50 (human TLR9; [1]): 12700 nM
IC50 (human TLR7; [2]): 1.6 nM
IC50 (human TLR8; [3]): 5.1 nM
SMILES: CCN(CC)CC(=O)N1CCN(c2ccc3[nH]c(-c4cn5ncnc5c(C)c4C)c(C(C)C)c3n2)CC1 [Example 871]

IC50 (human TLR9; [4]): 1430 nM
IC50 (human TLR7; [5]): 1.2 nM
IC50 (human TLR8; [6]): 6.8 nM
SMILES: COc1cc(-c2[nH]c3ccc(OCC4CCN(CC(=O)N(C)C)CC4)nc3c2C(C)C)cn2ncnc12 [Example 602, 2-(4-(((3-isopropyl-2-(8-methoxy-[1,2,4]triazolo[1,5-a]pyridin-6-yl)-1H-pyrrolo[3,2-b]pyridin-5-yl)oxy)methyl)piperidin-1-yl)-N,N-dimethylacetamide]
